# Read-outs that look alike come from different tables or passages of the source.
# Assays:
# Mtb H37Rv strain = experiment: Mtb H37Rv assay, resazurin microtiter-based assay (REMA); type: cell-based, Mycobacterium tuberculosis; conditions: REMA plate method, 90% inhibition with respect to growth control
# [1] = molecular target: Mtb InhA (enoyl acyl carrier protein reductase) (Mycobacterium tuberculosis, UniProt P9WGR1); experiment: Mtb InhA enzyme inhibition assay (fluorescence based); type: biochemical
# Sequence of Mtb InhA (enoyl acyl carrier protein reductase) (P9WGR1 whole entry, looked up): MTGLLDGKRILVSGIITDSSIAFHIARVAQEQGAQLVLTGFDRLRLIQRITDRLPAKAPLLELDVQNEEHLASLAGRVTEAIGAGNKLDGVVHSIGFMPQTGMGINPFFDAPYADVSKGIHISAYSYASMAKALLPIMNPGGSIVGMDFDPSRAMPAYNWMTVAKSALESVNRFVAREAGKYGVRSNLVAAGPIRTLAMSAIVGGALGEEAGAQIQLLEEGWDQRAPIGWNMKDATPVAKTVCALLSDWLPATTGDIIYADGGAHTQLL
# Method: Mtb InhA enzyme inhibition assay (Fluorescence based assay)
# The compounds were dissolved in 100% dimethyl sulfoxide (DMSO). […] The 50μL enzyme reaction contained PIPES- 30 mM, pH 7.5, NaCl - 50 mM, 0.005% Brij-35, DTT - 2mM, and EDTA- 0.1mM. The enzyme reaction was started by the addition of […] of dodecyl CoA synthesized in-house and the depletion of NADH was followed by measuring the fluorescence of NADH kinetically in the reaction for 30min at excitation at 340nm and emission at 420nm using Tecan Saffire II reader. The concentration at which 50% inhibition in enzyme activity was observed was reported as the IC50.
# [2] = read-out: InhA IC50, InhA 1.25 nM, 0.050 mM NADH, NADH fluorescence
smiles,measurement,setting,value
"Nn1c(-c2ccncc2)nn(CC(=O)Nc2ncccn2)c1=S [Compound 6r, 2-(4-Amino-(3-pyridin-4-yl)-5-thioxo-4,5-dihydro-1H[1,2,4]triazol-1-yl)-N-pyrimidin-2-yl acetamide]",melting point,,205 to 207 °C
"Nn1c(-c2ccncc2)nn(CC(=O)Nc2cccc(Cl)c2)c1=S [Compound 6j, 2-(4-Amino-(3-pyridin-4-yl)-5-thioxo-4,5-dihydro-1H[1,2,4]triazol-1-yl)-N-(3-chlorophenyl) acetamide]",MIC,Mtb H37Rv strain; Mycobacterium tuberculosis,6.25 µM
same,melting point,,220 to 222 °C
same,IC50,[1]; [2],3.1 µM
"Nn1c(-c2ccncc2)nn(CC(=O)Nc2nccs2)c1=S [Compound 6u, 2-(4-Amino-(3-pyridin-4-yl)-5-thioxo-4,5-dihydro-1H[1,2,4]triazol-1-yl)-N-thiazol-2-yl acetamide]",melting point,,253 to 255 °C
"NNC(=O)c1ccncc1 [INH, isoniazid, reference compound]",MIC,Mtb H37Rv strain; Mycobacterium tuberculosis,0.05 µM
"Cc1cc(NC(=O)Cn2nc(-c3ccncc3)n(N)c2=S)no1 [Compound 6s, 2-(4-Amino-(3-pyridin-4-yl)-5-thioxo-4,5-dihydro-1H[1,2,4]triazol-1-yl)-N-(5-methylisoxazol-3-yl) acetamide]",melting point,,242 to 244 °C
"Nn1c(-c2ccncc2)nn(CC(=O)Nc2ccccn2)c1=S [Compound 6o, 2-(4-Amino-(3-pyridin-4-yl)-5-thioxo-4,5-dihydro-1H[1,2,4]triazol-1-yl)-N-pyridin-2-yl acetamide]",MIC,Mtb H37Rv strain; Mycobacterium tuberculosis,100 µM
same,melting point,,212 to 214 °C
same,IC50,[1]; [2],76 µM
"Cc1ccc(NC(=O)Cn2nc(-c3ccncc3)n(N)c2=S)cc1 [Compound 6b, 2-(4-amino-3-(pyridin-4-yl)-5-thioxo-4,5-dihydro-1H-1,2,4-triazol-1-yl)-N-(p-tolyl)acetamide]",MIC,Mtb H37Rv strain; Mycobacterium tuberculosis,0.19 µM
same,MIC,Mtb H37Rv strain,0.19 µM
same,melting point,,237 to 238 °C
same,IC50,[1],0.09 µM
"Cc1cccc(NC(=O)Cn2nc(-c3ccncc3)n(N)c2=S)c1 [Compound 6i, 2-(4-Amino-(3-pyridin-4-yl)-5-thioxo-4,5-dihydro-1H[1,2,4]triazol-1-yl)-N-(3-methylphenyl)acetamide]",MIC,Mtb H37Rv strain; Mycobacterium tuberculosis,0.39 µM
same,melting point,,225 to 227 °C
same,IC50,[1],0.12 µM
"O=C(Cn1nc(-c2ccncc2)oc1=S)Nc1nc2ccccc2s1 [Compound 7f, 2-(5-pyridin-4-yl-2-thioxo-[1,3,4]oxadiazol-3-yl)-N-benzothiazol-2-yl acetamide]",melting point,,206 to 208 °C
"Nn1c(-c2ccncc2)nn(CC(=O)Nc2ccc(Cl)cc2)c1=S [Compound 6f, 2-(4-Amino-(3-pyridin-4-yl)-5-thioxo-4,5-dihydro-1H[1,2,4]triazol-1-yl)-N-(4-chlorophenyl) acetamide]",MIC,Mtb H37Rv strain; Mycobacterium tuberculosis,12.5 µM
same,melting point,,218 to 220 °C
same,IC50,[1]; [2],1.2 µM
"Cc1cccc(NC(=O)Cn2nc(-c3ccncc3)n(N)c2=S)n1 [Compound 6p, 2-(4-Amino-(3-pyridin-4-yl)-5-thioxo-4,5-dihydro-1H[1,2,4]triazol-1-yl)-N-(6-methylpyridin-2-yl) acetamide]",MIC,Mtb H37Rv strain; Mycobacterium tuberculosis,100 µM
same,melting point,,230 to 232 °C
same,IC50,[1]; [2],86 µM
"COc1cccc(NC(=O)Cn2nc(-c3ccncc3)n(N)c2=S)c1 [Compound 6l, 2-(4-Amino-(3-pyridin-4-yl)-5-thioxo-4,5-dihydro-1H[1,2,4]triazol-1-yl)-N-(3-methoxyphenyl) acetamide]",melting point,,222 to 224 °C
"Cc1ccc(NC(=O)Cn2nc(-c3ccncc3)n(N)c2=S)cc1Cl [Compound 6h, 2-(4-Amino-(3-pyridin-4-yl)-5-thioxo-4,5-dihydro-1H[1,2,4]triazol-1-yl)-N-(3-chloro-4-methylphenyl) acetamide]",MIC,Mtb H37Rv strain; Mycobacterium tuberculosis,6.25 µM
same,melting point,,214 to 216 °C
same,IC50,[1]; [2],0.34 µM
"Nn1c(-c2ccncc2)nn(CC(=O)Nc2ccc(C(F)(F)F)cc2)c1=S [Compound 6n, 2-(4-Amino-(3-pyridin-4-yl)-5-thioxo-4,5-dihydro-1H[1,2,4]triazol-1-yl)-N-(4-trifluoromethylphenyl) acetamide]",melting point,,227 to 229 °C
"O=C(Cn1nc(-c2ccncc2)oc1=S)Nc1ncc([N+](=O)[O-])s1 [Compound 7e, N-(5-nitrothiazol-2-yl)-2-(5-(pyridin-4-yl)-2-thioxo-1,3,4-oxadiazol-3(2H)-yl)acetamide]",MIC,Mtb H37Rv strain; Mycobacterium tuberculosis,100 µM
same,melting point,,254 to 256 °C
same,IC50,[1],82 µM
"Nn1c(-c2ccncc2)nn(CC(=O)Nc2ccccc2)c1=S [Compound 6a, 2-(4-Amino-3-pyridin-4-yl-5-thioxo-4,5-dihydro-[1,2,4]triazol-1-yl)-N-phenyl acetamide]",MIC,Mtb H37Rv strain; Mycobacterium tuberculosis,12.5 µM
same,melting point,,242 to 244 °C
same,IC50,[1]; [2],0.68 µM
"O=C(Cn1nc(-c2ccncc2)oc1=S)Nc1ccccn1 [Compound 7a, 2-(5-pyridin-4-yl-2-thioxo-[1,3,4]oxadiazol-3-yl)-N-pyridin-2-yl acetamide]",melting point,,216 to 218 °C
"Cc1ccnc(NC(=O)Cn2nc(-c3ccncc3)n(N)c2=S)c1 [Compound 6q, 2-(4-Amino-(3-pyridin-4-yl)-5-thioxo-4,5-dihydro-1H[1,2,4]triazol-1-yl)-N-(4-methylpyridin-2-yl) acetamide]",melting point,,217 to 219 °C
"CCOc1ccc2nc(NC(=O)Cn3nc(-c4ccncc4)oc3=S)sc2c1 [Compound 7g, N-(6-ethoxybenzo[d]thiazol-2-yl)-2-(5-(pyridin-4-yl)-2-thioxo-1,3,4-oxadiazol-3(2H)-yl)acetamide]",MIC,Mtb H37Rv strain; Mycobacterium tuberculosis,> 100 µM
same,melting point,,252 to 254 °C
same,IC50,[1],> 100 µM
"O=C(Cn1nc(-c2ccncc2)oc1=S)Nc1nccs1 [Compound 7c, 2-(5-pyridin-4-yl-2-thioxo-[1,3,4]oxadiazol-3-yl)-N-thiazol-2-yl acetamide]",melting point,,244 to 246 °C
"COc1ccc(NC(=O)Cn2nc(-c3ccncc3)n(N)c2=S)cc1 [Compound 6d, 2-(4-Amino-3-(pyridin-4-yl)-5-thioxo-4,5-dihydro-1H[1,2,4]triazol-1-yl)-N-(4-methoxyphenyl) acetamide]",MIC,Mtb H37Rv strain; Mycobacterium tuberculosis,25 µM
same,melting point,,256 to 258 °C
same,IC50,[1]; [2],10.8 µM
"Cc1ccc(NC(=O)Cn2nc(-c3ccncc3)n(N)c2=S)cc1C [Compound 6g, 2-(4-Amino-(3-pyridin-4-yl)-5-thioxo-4,5-dihydro-1H[1,2,4]triazol-1-yl)-N-(3,4-dimethylphenyl) acetamide]",MIC,Mtb H37Rv strain; Mycobacterium tuberculosis,0.39 µM
same,melting point,,242 to 244 °C
same,IC50,[1]; [2],0.19 µM
"Cc1cnc(NC(=O)Cn2nc(-c3ccncc3)oc2=S)s1 [Compound 7d, N-(5-methylthiazol-2-yl)-2-(5-(pyridin-4-yl)-2-thioxo-1,3,4-oxadiazol-3(2H)-yl)acetamide]",MIC,Mtb H37Rv strain; Mycobacterium tuberculosis,100 µM
same,melting point,,236 to 238 °C
same,IC50,[1],67 µM
"Cc1cc(NC(=O)Cn2nc(-c3ccncc3)oc2=S)no1 [Compound 7b, N-(5-methylisoxazol-3-yl)-2-(5-(pyridin-4-yl)-2-thioxo-1,3,4-oxadiazol-3(2H)-yl)acetamide]",MIC,Mtb H37Rv strain; Mycobacterium tuberculosis,50 µM
same,melting point,,232 to 234 °C
same,IC50,[1],24 µM
"Nn1c(-c2ccncc2)nn(CC(=O)Nc2cccc(C(F)(F)F)c2)c1=S [Compound 6e, 2-(4-Amino-3-(pyridin-4-yl)-5-thioxo-4,5-dihydro-1H[1,2,4]triazol-1-yl)-N-(3-trifluoromethylphenyl) acetamide]",MIC,Mtb H37Rv strain; Mycobacterium tuberculosis,12.5 µM
same,melting point,,242 to 244 °C
same,IC50,[1]; [2],5.95 µM
"Cc1cccc2sc(NC(=O)Cn3nc(-c4ccncc4)n(N)c3=S)nc12 [Compound 6t, 2-(4-Amino-(3-pyridin-4-yl)-5-thioxo-4,5-dihydro-1H[1,2,4]triazol-1-yl)-N-(4-methylbenzothiazol-3-yl) acetamide]",melting point,,243 to 245 °C
"Cc1cnc(NC(=O)Cn2nc(-c3ccncc3)n(N)c2=S)s1 [Compound 6v, 2-(4-Amino-(3-pyridin-4-yl)-5-thioxo-4,5-dihydro-1H[1,2,4]triazol-1-yl)-N-(5-methylthiazol-2-yl) acetamide]",melting point,,250 to 252 °C
"Nn1c(-c2ccncc2)nn(CC(=O)Nc2ccc(Br)cc2F)c1=S [Compound 6c, 2-(4-amino-3-(pyridin-4-yl)-5-thioxo-4,5-dihydro-1H-1,2,4-triazol-1-yl)-N-(4-bromo-2-fluorophenyl)acetamide]",MIC,Mtb H37Rv strain; Mycobacterium tuberculosis,3.12 µM
same,melting point,,276 to 278 °C
same,IC50,[1],6.15 µM
"Nn1c(-c2ccncc2)nn(CC(=O)Nc2cc(C(F)(F)F)ccc2Cl)c1=S [Compound 6k, 2-(4-Amino-(3-pyridin-4-yl)-5-thioxo-4,5-dihydro-1H[1,2,4]triazol-1-yl)-N-(2-chloro-5-trifluoromethylphenyl) acetamide]",melting point,,184 to 186 °C
"Nn1c(-c2ccncc2)nn(CC(=O)Nc2ccc(F)cc2)c1=S [Compound 6m, 2-(4-Amino-(3-pyridin-4-yl)-5-thioxo-4,5-dihydro-1H[1,2,4]triazol-1-yl)-N-(4-fluorophenyl) acetamide]",melting point,,227 to 229 °C

# From PMC7059037, “Development of 1,2,4-Triazole-5-Thione Derivatives as Potential Inhibitors of Enoyl Acyl Carrier Protein Reductase (InhA) in Tuberculosis” (Iranian Journal of Pharmaceutical Research : IJPR, 2019)
